According to patent US20250127796A1, “METHODS OF TREATING CANCER WITH PI3K INHIBITOR, GDC-0077” (Genentech, Inc., priority 2018, published 2025):
Like-named read-outs stand apart in the source and are kept apart here.

Tests used:
[1] = system: Class I PI3K beta, delta, and gamma isoforms; settings: selectivity of alpha over beta; cited from earlier work
[2] = system: human breast xenograft models harboring PIK3CA mutations; assay: tumor growth in human breast xenograft models harboring PIK3CA mutations; type: in vivo; settings: nonclinical studies
[3] = system: tumor cells bearing mutant PI3K; settings: mutant versus WT PI3K cells; cited from earlier work
[4] = system: PIK3CA-mutant breast cancer cell lines; assay: proliferation and apoptosis of PIK3CA-mutant breast cancer cell lines; type: cell-based; settings: nonclinical studies
pAKT, pPRAS40, and pS6 = assay: downstream PI3K-pathway markers; type: cell-based; settings: nonclinical studies
[5] = in combination with fulvestrant; cited from earlier work
[6] = in combination with letrozole; cited from earlier work

SMILES | less potent biochemical inhibition for other Class I PI3K beta, delta, and gamma isoforms (versus PI3K alpha) [1] | tumor growth in human breast xenograft models harboring PIK3CA mutations [2] | potency in mutant PI3K tumor cells over wild type (WT) PI3K cells [3] | proliferation and apoptosis of PIK3CA-mutant breast cancer cell lines [4] | downstream PI3K-pathway markers, including pAKT, pPRAS40, and pS6 (pAKT, pPRAS40, and pS6) | patients who required ≥1 dose reduction of palbociclib [5] | patients who required ≥1 dose reduction of palbociclib [6]
C[C@H](Nc1ccc2c(c1)OCCn1cc(N3C(=O)OC[C@H]3C(F)F)nc1-2)C(N)=O [GDC-0077, (S)-2-((2-((S)-4-(difluoromethyl)-2-oxooxazolidin-3-yl)-5,6-dihydrobenzo[f]imidazo[1,2-d][1,4]oxazepin-9-yl)amino)propanamide] | > 300 fold | inhibits tumor growth | increased potency in tumor cells bearing mutant PI3K over wild type (WT) PI3K cells | inhibits proliferation and induces apoptosis | reduces downstream PI3K-pathway markers |  | 
CC(=O)c1c(C)c2cnc(Nc3ccc(N4CCNCC4)cn3)nc2n(C2CCCC2)c1=O [palbociclib, 6-acetyl-8-cyclopentyl-5-methyl-2-(5-(piperazin-1-yl)pyridin-2-ylamino)pyrido[2,3-d]pyrimidin-7(8H)-one] |  |  |  |  |  | 34% | 36%
